Test results: patent US7148230B2, “Quinazoline derivatives” (AstraZeneca AB, priority 2003, dated 2006)

What was measured:
[1] = target: T1, erbB2 tyrosine kinase (Homo sapiens, UniProt P04626); experiment: Protein tyrosine kinase phosphorylation assay, Test (a), erbB2; type: biochemical; settings: ATP at Km concentration; read-out: IC50 (nM) Test (a) (Inhibition of erbB2 tyrosine kinase protein phosphorylation)
T1 construct: Recombinant intracellular fragments of EGFR, erbB2 and erbB4; made in house; host or cells: baculovirus/Sf21 insect cells (cleared lysate used)
T1 sequence (P04626 676-1255 limits assumed): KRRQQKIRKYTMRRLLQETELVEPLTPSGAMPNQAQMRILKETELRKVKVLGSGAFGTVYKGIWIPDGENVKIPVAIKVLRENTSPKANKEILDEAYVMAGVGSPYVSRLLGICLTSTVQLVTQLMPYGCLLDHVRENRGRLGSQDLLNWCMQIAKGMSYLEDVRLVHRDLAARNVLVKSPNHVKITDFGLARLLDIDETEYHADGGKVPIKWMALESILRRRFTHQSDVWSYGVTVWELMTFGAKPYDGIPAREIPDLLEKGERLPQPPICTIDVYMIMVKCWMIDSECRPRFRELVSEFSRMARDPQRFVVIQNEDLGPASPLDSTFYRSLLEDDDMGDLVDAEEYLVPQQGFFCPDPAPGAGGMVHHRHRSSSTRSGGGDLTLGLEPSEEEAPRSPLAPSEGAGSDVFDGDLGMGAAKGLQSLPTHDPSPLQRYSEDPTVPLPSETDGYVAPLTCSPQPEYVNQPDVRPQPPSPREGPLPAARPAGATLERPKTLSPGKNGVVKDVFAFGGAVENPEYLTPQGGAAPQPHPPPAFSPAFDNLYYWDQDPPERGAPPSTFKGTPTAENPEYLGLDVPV
Protocol: (§1) This test measures the ability of a test compound to inhibit the phosphorylation of a tyrosine containing polypeptide substrate by an erbB tyrosine kinase enzyme.
(§2) Recombinant intracellular fragments of EGFR, erbB2 and erbB4 (accession numbers X00588, X03363 and L07868 respectively) were cloned and expressed in the baculovirus/Sf21 system. Lysates were prepared from these cells by treatment with ice-cold lysis buffer (20 mM N-2-hydroxyethylpiperizine-N′-2-ethanesulfonic acid (HEPES) pH7.5, 150 mM NaCl, 10% glycerol, 1% Triton X-100, 1.5 mM MgCl2, 1 mM ethylene glycol-bis(β-aminoethyl ether) N′,N′,N′,N′-tetraacetic acid (EGTA), plus protease inhibitors and then cleared by centrifugation.
(§3) Constitutive kinase activity of the recombinant protein was determined by its ability to phosphorylate a synthetic peptide (made up of a random co-polymer of Glutamic Acid, Alanine and Tyrosine in the ratio of 6:3:1). […]
(§4) The immobilised phospho-peptide product of the reaction was detected by immunological methods. […] After further washing, HRP activity in each well of the plate was measured colorimetrically using 22′-Azino-di-[3-ethylbenzthiazoline sulfonate (6)]diammonium salt crystals (ABTS™ from Roche) as a substrate.
(§5) Quantification of colour development and thus enzyme activity was achieved by the measurement of absorbance at 405 nm on a Molecular Devices ThermoMax microplate reader. […]

[2] = target: T2, EGFR tyrosine kinase (Homo sapiens, UniProt P00533); experiment: Protein tyrosine kinase phosphorylation assay, Test (a), EGFR; type: biochemical; settings: ATP at Km concentration; read-out: IC50 (nM) Test (a) (Inhibition of EGFR tyrosine kinase protein phosphorylation)
T2 construct: Recombinant intracellular fragments of EGFR, erbB2 and erbB4; made in house; host or cells: baculovirus/Sf21 insect cells (cleared lysate used)
T2 sequence (P00533 669-1210 limits assumed): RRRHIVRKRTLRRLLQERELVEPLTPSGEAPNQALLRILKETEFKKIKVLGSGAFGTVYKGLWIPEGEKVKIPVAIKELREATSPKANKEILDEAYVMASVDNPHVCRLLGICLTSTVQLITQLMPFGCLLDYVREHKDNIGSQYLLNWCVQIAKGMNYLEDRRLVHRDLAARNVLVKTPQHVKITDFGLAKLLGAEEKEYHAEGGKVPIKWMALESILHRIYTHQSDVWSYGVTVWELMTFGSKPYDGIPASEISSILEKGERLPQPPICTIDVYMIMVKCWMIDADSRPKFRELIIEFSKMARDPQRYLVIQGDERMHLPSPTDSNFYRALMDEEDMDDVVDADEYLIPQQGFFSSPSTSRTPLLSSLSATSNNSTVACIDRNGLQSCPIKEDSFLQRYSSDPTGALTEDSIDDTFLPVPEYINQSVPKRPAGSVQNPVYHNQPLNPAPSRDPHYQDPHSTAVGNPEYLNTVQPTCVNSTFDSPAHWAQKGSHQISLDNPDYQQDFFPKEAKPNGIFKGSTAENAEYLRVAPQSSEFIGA
Protocol: as §1, §2, §3, §4, §5

COc1cc2ncnc(Nc3cccc(Cl)c3F)c2cc1OC1CCN(C(=O)CO)CC1 [Example 1, 4-(3-chloro-2-fluoroanilino)-6-[1-(hydroxyacetyl)piperidin-4-yloxy]-7-methoxyquinazoline]
IC50 [1]: 59 nM
IC50 [2]: 3 nM
melting point: 195.5 to 196.5 °C
